Patent publication US20250332167A1, “PHARMACEUTICAL USE OF CDK 4/6 INHIBITOR” (priority 2021, published 2025)
Several values for one entry are separate records, joined by “and”; a condition that tells them apart may be missing. Equal values may be shown once.

Key:
[1] = tested on: Human glioblastoma model (BN2289); assay: Human glioblastoma xenograft mouse model (BN2289); format: in vivo, BALB/C nude mice; conditions: 25 mg/kg oral gavage once daily, day 21
Excerpt: Human glioblastoma model (BN2289, Crown Bioscience Co., Ltd.) tumor fragments were cut into small pieces with a diameter of 2-3 mm and subcutaneously inoculated into the right side of BALB/C nude mice. Tumor growth was monitored regularly, and when the tumors grew to an average volume of approximately 100-200 mm^3, mice were randomly divided into groups based on the tumor size.
Each group consisted of 8 mice and received oral gavage administration once daily for a total of 28 days. Regular observations were made on tumor volume and changes in body weight. Efficacy evaluation was conducted based on the relative tumor growth rate (T/C) and the relative tumor inhibition rate (TGI).
(§1) The formula for calculating tumor volume was: Tumor Volume (mm^3)=½×(a×b^2) (where “a” represents the long diameter and “b” represents the short diameter).
(§2) The relative tumor growth rate (T/C) is the percentage value of the relative tumor volume or weight between the treatment group and the control group at a certain time point. The calculation formula is as follows: • T/C(%)=TRTV/CRTV×100% (TRTV: Average RTV of the treatment group; CRTV: Average RTV of the Vehicle group; RTV=Vt/V0, where V0 is the tumor volume of the animal at the time of grouping and Vt is the tumor volume of the animal after treatment).
(§3) (T and C are the relative tumor volume (RTV) or weight (TW) of the treatment group and control group at a specific time point, respectively).

NCI-H1975 xenograft = assay: Human non-small cell lung cancer NCI-H1975 xenograft mouse model; format: in vivo, Balb/c nude mice; conditions: 25 mg/kg oral gavage once daily
Excerpt: as §1, §2, §3
NCI-H1975 cells were cultured in RPMI1640 medium containing 10% fetal bovine serum. Log-phase NCI-H1975 cells were collected, suspended in PBS to an appropriate concentration, and used for subcutaneous tumor implantation in Balb/c nude mice. Each female mouse was implanted with 0.1 ml of NCI-H1975 cells subcutaneously. When the average tumor volume reached 171 mm^3, the mice were randomly divided into groups based on tumor size.
The positive control drugs were Palbociclib and Abemaciclib.
Each group consisted of 8 mice, and oral gavage administration was performed once daily for a total of 21 days. Tumor volume and body weight changes were observed regularly, and efficacy evaluation was conducted based on relative tumor proliferation rate (T/C) and relative tumor growth inhibition rate (TGI). The calculation methods for tumor volume, T/C, and TGI are described in Example 3.

NCI-H441 = assay: Proliferation inhibition, non-small cell lung cancer cell line NCI-H441; format: cell-based; conditions: Homo sapiens, NCI-H441, 72 h
Experimental: (§4) Sixteen non-small cell lung cancer cell lines, including NCI-H1792, NCI-H1703, NCI-H441, SNU-761, NCI-H1975, NCI-H358, NCI-H1838, NCI-H1915, A549, SK-MES-1, NCI-H292, PC-9, NCI-H460, NCI-H23, NCI-H1581, and HLF, were used for the proliferation inhibition assay of the present invention compound. […] The cell detection equipment used was In Cell Analyzer 2200 (GE Healthcare).
(§5) With 60 μM as the initial concentration, ten points were obtained by serial five-fold dilution.
(§6) Each kind of cell in logarithmic growth phase was inoculated with 4000 cells/100 μl/well into a black transparent bottom 96-well plate and cultured overnight at 37° C. The next day, the plate was taken out, and 20 μL of the prepared sample dilutions was added to each well. The plate was then subjected to treatment at 37° C. for 72 hours. After the treatment period of 72 hours, the plate was taken out and 50 μL of neutral formaldehyde fixative (formaldehyde: PBS=1:9, 50 μl/well) was added to each well. The plate was then fixed at room temperature for 10-30 minutes. Subsequently, the wells were washed twice with 1× PBS (100 μl/well) and treated with 0.2% Triton™-X100 for 5-10 minutes to permeabilize the cells. […] The inhibitory rates of each compound at different concentration points were calculated by using the following formula, and IC50 values were obtained through curve fitting using GraphPad Prism 6.0 software.

NCI-H358 = assay: Proliferation inhibition, non-small cell lung cancer cell line NCI-H358; format: cell-based; conditions: Homo sapiens, NCI-H358, 72 h
Experimental: as §4, §5, §6

NCI-H1703 = assay: Proliferation inhibition, non-small cell lung cancer cell line NCI-H1703; format: cell-based; conditions: Homo sapiens, NCI-H1703, 72 h
Experimental: as §4, §5, §6

U118MG cells = assay: Proliferation inhibition of human glioblastoma cells U118MG (DAPI cell count, 72 h); format: cell-based; conditions: U-118-MG, 72 h treatment
Experimental: Human glioblastoma cell U118MG was purchased from NANJING COBIOER BIOSCIENCES CO., LTD. […] The cell detection equipment used was the In Cell Analyzer 2200 (GE Healthcare).
as §5
Medium for U118 MG is the MEM (low glucose) medium supplemented with 10% FBS, 1% penicillin/streptomycin, 1% sodium pyruvate, and 1% MEM NEAA. U118 MG cells were seeded at a density of 4000 cells/100 μL/well in a 96-well black clear-bottom plate and incubated at 37° C. overnight. The plate was then taken, and 20 μL of the prepared diluted samples was added to the wells. The cells were treated at 37° C. for 72 hours. After 72 hours, the plate was taken, and a neutral formaldehyde fixation solution (formaldehyde:PBS=1:9) was added at 50 μL/well. The cells were fixed at room temperature for 10-30 minutes. The wells were washed twice with 1× PBS (100 μL/well), and then permeabilized with 0.2% Triton™-X100 for 5-10 minutes (100 μL/well). […] The plate was scanned by using an In Cell Analyzer, and the number of cells in each well was analyzed. The inhibition rate of each compound at various concentration points was calculated by using the formula provided. The IC50 values were determined by curve fitting using GraphPad Prism 6.0 software.

SNU-761 = assay: Proliferation inhibition, non-small cell lung cancer cell line SNU-761; format: cell-based; conditions: Homo sapiens; SNU-761, 72 h
Experimental: as §4, §5, §6

NCI-H1838 = assay: Proliferation inhibition, non-small cell lung cancer cell line NCI-H1838; format: cell-based; conditions: Homo sapiens, NCI-H1838, 72 h
Experimental: as §4, §5, §6

NCI-H1792 = assay: Proliferation inhibition, non-small cell lung cancer cell line NCI-H1792; format: cell-based; conditions: Homo sapiens, NCI-H1792, 72 h
Experimental: as §4, §5, §6

Structure (SMILES) | Day 21 Tumor Volume [1] [mm^3] | Relative Average Tumor Volume [1] | T/C (relative tumor growth rate) [1] [%] | TGI (relative tumor inhibition rate) [1] [%] | T/C (NCI-H1975 xenograft; 16 days after administration) [%] | TGI (NCI-H1975 xenograft; 16 days after administration) [%] | Tumor relative volume (x ± S) (NCI-H1975 xenograft; 16 days after administration) | Tumor volume (x ± S) (NCI-H1975 xenograft; 16 days after administration) | Body weight change (NCI-H1975 xenograft; Day 20 of treatment) | IC50 (NCI-H441) [nM] | IC50 (NCI-H358) [nM] | IC50 (NCI-H1703) [nM] | IC50 (U118MG cells) [nM] | IC50 (SNU-761) [nM] | IC50 (NCI-H1838) [nM] | IC50 (NCI-H1792) [nM]
CC(=O)c1c(C)c2cnc(Nc3ccc(N4CCNCC4)cn3)nc2n(C2CCCC2)c1=O [Palbociclib, reference compound] | 1417.98 ± 121.86 | 9.58 | 66.01 | 33.99 | 66 | 34 | 7.7 ± 1.0 | 1469 mm^3 and 1469 ± 146 mm^3 | slight decrease in body weight | – | – | – | – | – | – | –
CCN1CCN(Cc2ccc(Nc3ncc(F)c(-c4cc(F)c5nc(C)n(C(C)C)c5c4)n3)nc2)CC1 [Abemaciclib, reference compound] | 1627.31 ± 100.66 | – | – | – | 93 | 7 | – | 2071 mm^3 and 2071 ± 148 mm^3 | – | 40 | 44 | 93 | 86 ± 22.9 | 54 | 90.2 | 23
